Source: patent US20130022590A1, “Compositions Comprising Zinc Finger Domains and Uses Therefor” (priority 2009, published 2013)

Columns and labels:
[1] = tested on: ssRNA oligonucleotide containing a single AGGUAA site (GCAACCAGGUAAAGUCU, SEQ ID NO: 28); experiment: Fluorescence anisotropy titration, single-site ssRNA; assay type: binding; settings: GST fusions; ssRNA with 5′ fluorescein tag and a single AGGUAA site; 25° C.
Procedure: (§1) Fluorescence Anisotropy titrations e.g., as shown in FIGS. 1D-F, 8 and 35, were carried out using standard protocols. In brief, 5′-Fluorescein-labeled RNA oligonucleotides were quantified by A260, correcting for fluorescein absorbance by using A493. For single-site experiments, the sequence GCAACCAGGUAAAGUCU (SEQ ID NO: 28), or single base mutants thereof, was used. For double-site experiments, two AGGUAA sites were separated by different length sequences as indicated, and the total oligonucleotide lengths were kept constant by the symmetrical addition of adenines to each end. […] Protein was titrated into this starting solution and anisotropy values measured on a Cary Eclipse fluorescence spectrophotometer fitted with manual polarizer and long-pass filters set to 475 and 515 nm for excitation and emission, respectively. […] Association constants were determined by nonlinear least squares regression analysis using a 1:1 binding model.
Constructs of the two individual domains, F1 (FIG. 2, residues 1-45) and F2 (FIG. 2, residues 65-95), were cloned expressed and purified as GST fusions described in section 1.2 above, and tested their ability to bind ssRNA by fluorescence anisotropy as described in section 1.5 above, using a ssRNA oligonucleotide bearing a 5′ fluorescein tag and containing a single AGGUAA site.

[2] = tested on: AGAUAA ssRNA; experiment: Fluorescence anisotropy binding assay, AGAUAA substrate; settings: FIG. 19 and FIG. 20
Procedure: as §1
To determine whether changing arginine-82 (R82) would affect the binding preference of ZRANB2-F2 from GGU to GAU, the point mutation R82Q in ZNF 2 of ZRANB2 was made and the ability of both the wild type (W) protein and the R82Q mutant to bind to AGGUAA and AGAUAA was assessed by fluorescence anisotropy binding assays as described previously in Example 1.

[3] = tested on: short (6 or 10 nt) RNA oligonucleotides containing a single AGGUAA motif; experiment: NMR chemical-shift perturbation (15N-HSQC) RNA titration; assay type: binding; settings: 15N-labeled F2
Procedure: In brief, F2 and F12 were dialysed into 25 mM potassium phosphate (pH 7.0), 25 mM NaCl, and 0.5 mM DTT and concentrated to 0.4-1 mM. All spectra were recorded on a Bruker Avance 600 spectrometer equipped with a cryoprobe. 1H, 15N, and 13C assignments were obtained from HNCACB, CB-CA(CO)NH, HCCH-TOCSY, NOESY, and TOCSY spectra acquired at 2° C., 5° C., or 25° C. Dihedral angle restraints were obtained by analysis of an HNHA spectrum as previously described in Vuister G. W. and Bax A. 1993 J Am Chem Soc 115: 7772-7777. NMR data were processed by using XWINNMR/Topspin (Bruker) and analyzed with SPARKY (T. D. Goddard and D. G. Kneller, University of California, San Francisco). The structure of F2 was calculated from NOE and Ø angle constraints (e.g., FIGS. 5 and 9C) by using a protocol as described in Plambeck C. A., et al., 2003 J Biol Chem 278: 22805-22811.
For RNA titrations, deprotected RNA oligonucleotides i.e., having the sequence AGGUAA, CCAGGUAAAG (SEQ ID NO: 25), or AGGUAAAGGUAA (SEQ ID NO: 26) and the appropriate protein were dialyzed into 10 mM Mops (pH 7.2) and 0.5 mM DTT. Protein and RNA concentrations were calculated from A280 and A260, respectively. Final concentrations of complexes after titrations were typically approximately 0.1-0.5 mM. Assignments of the F2:RNA complex (1:1 or 1:1.2 molar ratio) were made at 25° C. as described above. […]

Question: How did the association constant [1] turn out when “F1: F1 zinc finger domain (residues 1-45 of human ZRANB2) (MSTKNFRVSDGDWICPDKKCGNVNFARRTSCNRCGREKTTEAKMM; F1 zinc finger domain GST fusion in some uses; UniProt O95218 1-45, looked up, fragment)” was run?
Answer: 3e+06 M⁻¹

Question: Which “binding affinity to guanine base relative to adenine base at position 3 (AGGUAA vs AGAUAA)” value [2] does the source give for “F2: F2 zinc finger domain (residues 65-95 of human ZRANB2), wild type (SANDWQCKTCSNVNWARRSECNMCNTPKYAK; F2 zinc finger domain GST fusion in some uses; UniProt O95218 65-95, looked up, fragment)” here?
Answer: about 4 fold

Question: What about the “complex formed on RNA titration” value [3] of the same substance?
Answer: well-defined 1:1 complex

Question: And the association constant [1]?
Answer: 1e+06 M⁻¹
